Test: gradient 5% acetonitrile 3 min, to 50% in 2 min, to 85% in 15 min, held 3 min, 100 µL/min
Conditions: column: Zorbax Extend-C18 2.1 x 50 mm; eluents: water / acetonitrile, 0.1% formic acid
Summary of the method: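 Retention times of pure standards were taken from adduct peaks that were selected by computer and manually inspected. Over 3 months, mixtures of ~100 molecules were run by HPLC–quadrupole time-of-flight mass spectrometry in positive and negative ionization mode. The Zorbax Extend-C18 column (2.1 × 50 mm, 1.8 μm) ran at 100 μL/min in water and acetonitrile, each containing 0.1% formic acid, with 40 μL dead volume and 900 μL dwell volume.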

| Compound | RP-LC retention time [s] |
| --- | --- |
| CCC(C)NC(=O)CC1CCN(C(=O)c2[nH]c(C)c(C(=O)OC(C)C)c2C)CC1 (centres undefined) | 775 |
| Cc1sc(NC(=O)Cc2csc(-c3ccccc3)n2)nc1-c1ccc(Br)cc1 | 1270 |
| COc1ccc(Nc2nc(N(C)C)nc3nccnc23)cc1 | 563 |
| Cc1ccc(Nc2c(-c3ccc4c(c3)OCO4)nc3cnccn23)c(C)c1 | 933 |
| Cc1ccc2c(c1)N(S(C)(=O)=O)CCC(C(=O)Nc1ccc(OC(C)C)cc1)O2 (centres undefined) | 976 |
| CS(=O)(=O)NCC(c1ccsc1)N1CCc2ccccc2C1 (centres undefined) | 563 |
| COc1ccc(CN2CCC(C3CCNC3)CC2)c(OC)c1 (centres undefined) | 548 |
| Cc1ccc(Nc2c(-c3ccc(Br)cc3)nc3cnccn23)cc1 | 1100 |
| CCNC(=O)C1CCCN(C(=O)Nc2ccc(NC(=O)Nc3ccc(C)cc3C)cc2)C1 (centres undefined) | 730 |
| COc1cccc(CCC(=O)N2CCN(c3nc(CN4CCC(C)CC4)cs3)CC2)c1 | 681 |
| Cc1ccc(Sc2nccnc2N2CCCC(C(=O)NC(C)c3ccccc3)C2)cc1 (centres undefined) | 1140 |
| CC(C)Oc1ccccc1CN1CC[C@@H]2CN(S(C)(=O)=O)[C@@H]2C1 | 638 |
| O=C(c1ccc(OCC2CCCN2C(=O)C2CCCCC2)cc1)N1CCCC1 (centres undefined) | 888 |
| COc1cc(-c2nnc(-c3cccc(S(=O)(=O)N4CCCCC4)c3)o2)cc(OC)c1OC | 1010 |
| Cc1ccc(C)c(CNC(=O)C2CCc3nc(N4CCCC4)ncc3C2)c1 (centres undefined) | 691 |
| CCS(=O)(=O)N1CCC(F)(c2nc(-c3ccccc3)no2)CC1 | 952 |
| Cc1c(C(=O)NC2CCCC2)cnn1-c1ccc(-c2nc(C3CC3)no2)cn1 | 999 |
| COc1ccc2c(c1)C1(CCN(S(=O)(=O)c3cc(F)cc(F)c3)C1)C(=O)N2 (centres undefined) | 872 |
| CCN1c2ccc(F)cc2C(=O)NC12CCN(C(=O)c1ccc(OC)cc1)CC2 | 773 |
| COc1ccc(-c2ccnn2-c2ccc(SCc3ccc(F)cc3)nn2)cc1 | 738 |
| O=C(c1ccc(OCC2CCCN(C(=O)c3ccc(F)cc3)C2)cc1)N1CCOCC1 (centres undefined) | 769 |
| O=C(c1cnn2c(C(F)(F)F)cc(-c3ccccc3)nc12)N1CCN(c2ccccn2)CC1 | 687 |
| O=S(=O)(c1ccc2c(c1)CCC2)N1CCC(Cc2nc(-c3cccnc3)n[nH]2)C1 (centres undefined) | 694 |
| CCN1C(=O)c2ccccc2Oc2ccc(C(=O)N3CCN(c4cccc(C)c4)C(C)C3)cc21 (centres undefined) | 1020 |
| Cc1cc(C)c2c(N(C)C)nc(C(=O)NCCN(C)C3CCCCC3)nc2n1 | 562 |

| Compound | RP-LC retention time [s] |
| --- | --- |
| O=C(C1=CN(c2cccc(Br)c2)c2cc(F)ccc2S1(=O)=O)N1CCCC1 | 863 |
| Cc1ccn2cc(-c3ccc(NS(=O)(=O)c4cccc([N+](=O)[O-])c4)cc3)nc2n1 | 662 |
| COc1ccc(NC(=O)N2CCC3(C2)C(=O)Nc2ccccc23)cc1 (centres undefined) | 702 |
| CC(C)c1ccc(S(=O)(=O)N2CCCC2c2nc(-c3cccc(Cl)c3)no2)cc1 (centres undefined) | 1350 |
| COc1ccc(OC)c(NS(=O)(=O)c2cc3c(s2)CCN(C(=O)C2CCC2)C3)c1 | 866 |
| O=C(Nc1ccccc1F)C1CCCN(S(=O)(=O)c2cc(-c3noc(C4CCC4)n3)cs2)C1 (centres undefined) | 1160 |
| Cc1noc([C@@H]2CC(F)(F)CN2S(=O)(=O)c2ccc(F)cc2)n1 | 884 |
| O=C(CN1C(=O)c2ccccc2C1=O)Nc1nnc(C2=COCCO2)o1 | 609 |
| O=C1CCN(C(=O)c2cccs2)CCOCCN1 | 585 |
| Cn1ncc(N2CCC(C(=O)N3CCN(C(=O)C4COc5ccccc5O4)CC3)CC2)cc1=O (centres undefined) | 659 |
| Cc1ccc(-n2nc3c(=O)n(CC(=O)NC4CCCC4)nc(C)c3c2C)cc1 | 795 |
| Cc1cccc(NC(=O)C2CCCN2S(=O)(=O)c2ccc3c(c2)NC(=O)CO3)c1C (centres undefined) | 805 |
| CCc1ccc(S(=O)(=O)N2CCC(C(=O)NCc3csc(-c4ccccc4)n3)CC2)cc1 | 999 |
| O=C(NC1CCCC1)c1ccc(-c2cccs2)nc1 | 849 |
| O=c1c(O[C@@H]2OC([C@H](O)CO)[C@H](O)[C@H]2O)c(-c2ccc(O)c(O)c2)oc2cc(O)cc(O)c12 (some centres undefined) | 641 |
| Clc1ccc(-c2nc(N3CCN(c4ccccn4)CC3)c3ccccc3n2)cc1 | 618 |
| Cc1nc(-c2csc(S(=O)(=O)N3CCC(C(=O)NCCC(C)C)CC3)c2)no1 | 868 |
| Cc1nc(C)c(-c2nnc(NC(=O)c3ccc(=O)[nH]n3)o2)s1 | 578 |
| CCc1cc(C(=O)N2CCCC2)nc2cc(-c3ccsc3)nn12 | 950 |
| CC(C)NC(=O)c1ccc2c(c1)CCN2C(=O)C1CC1 | 808 |
| CC1=C(C(=O)N2CCOCC2)C(c2ccc(F)c(Br)c2)C2=C(CCCC2=O)N1 (centres undefined) | 659 |
| Cc1nc2cc(-c3noc(Cc4ccccc4Cl)n3)ccc2o1 | 1030 |
| O=C1[C@H]2CN(Cc3ccccc3F)C[C@H]2C(=O)N1Cc1ccc2c(c1)OCO2 | 792 |
| c1ccc(N2CCN(CCCOc3ccc4c(c3)OCO4)CC2)cc1 | 770 |
| CC(C)Cn1c(=O)c2nscc2n(CC(=O)NC2CCCC2)c1=O | 731 |

Results, then the compound that gave them:

| RP-LC retention time [s] | Compound |
| --- | --- |
| 800 | COCCn1cc(CCNC(=O)Nc2cc(F)c(F)c(F)c2)c2cccnc21 |
| 859 | CC(=O)Nc1cccc(-c2nc(-c3ccc4nnn(C(C)C)c4c3)no2)c1 |
| 858 | CCN(CC)C(=O)c1ccc2c(c1)N(CC(=O)Nc1cc(C)cc(C)c1)C(=O)CS2 |
| 940 | CC(=O)c1cccc(NC(=O)c2cnn(-c3ccc(Br)cc3)c2)c1 |
| 575 | O=C(NCCOc1cc(N2CCCC2)ncn1)NCc1ccccc1 |
| 687 | O=C(CSc1nc2ccccc2s1)NCCn1nc(-c2ccco2)ccc1=O |
| 799 | COC(=O)CCNC(=O)C1c2ccccc2C(=O)N(Cc2ccco2)C12CCCCC2 (centres undefined) |
| 921 | O=C(Nc1ccc2c(c1)CCC2)C1CC(=O)N(CCc2c[nH]c3ccc(Cl)cc23)C1 (centres undefined) |
| 781 | Cc1cc2nn(CC(=O)NCc3ccccc3)c(=O)n2c(-c2ccc(F)cc2)n1 |
| 662 | COC(=O)Nc1ccc(CC(=O)NCc2cccs2)cc1 |
| 870 | COc1ccc(C2CC(=O)N(c3ccc(F)cc3F)C(=O)C2)cc1OC |
| 1300 | CCc1nc(-c2cccc(-c3noc(COc4ccccc4)n3)c2)cs1 |
| 610 | Cc1ccccc1Nc1nc(N)c2c(F)cccc2n1 |
| 585 | Cc1nc(C)c(-c2ccc(=O)n(CCNC(=O)c3ccno3)n2)s1 |
| 667 | O=C(Oc1coc(CSc2ncccn2)cc1=O)c1ccco1 |
| 958 | COc1ccc(OCC(=O)N2CCc3cc(-c4csc(C)n4)ccc32)cc1 |
| 765 | CN(C)c1nn(CC(=O)NCc2ccc3c(c2)OCO3)c(=O)c2ccccc12 |
| 847 | Cn1cc(-c2cc3n(n2)CCC(=O)N3CCCC(=O)NC2CCCCC2)c2ccccc21 |
| 620 | Cc1cc(C)cc(NC(=O)Nc2ccc3nc(N4CCN(C)CC4)cc(C)c3c2)c1 |
| 911 | COc1ccc(CCC(=O)N(C)CCc2noc(COc3ccc(OC)cc3)n2)cc1 |

| RP-LC retention time [s] | Compound |
| --- | --- |
| 615 | Cc1ccc(Oc2cccc(C(=O)NCCNc3cc(-n4cccn4)ncn3)c2)nn1 |
| 750 | CCCNC(=O)CCc1nc2ccccc2n(CC(=O)NCc2ccc(F)cc2)c1=O |
| 705 | CCc1ccccc1NC(=O)NCC1CCOCC1 |
| 928 | COC(=O)Cn1nc(-c2nc(-c3ccc(C)cc3)no2)ccc1=O |
| 733 | COc1cccc(NS(=O)(=O)c2cc3n(c2)CCN(C(C)C)C3=O)c1 |
| 792 | O=C1CCN(C(=O)COc2ccc(Cl)cc2Cl)c2ccccc2N1 |
| 635 | CC1CCCN(CCCNC(=O)CN2C(=O)CCn3nc(-c4cn(C)c5ccccc45)cc32)C1 (centres undefined) |
| 951 | Clc1ccc(OCc2nc3c4ccccc4ncn3n2)cc1 |
| 627 | CSc1cccc(NC(=O)CN2CCC3(CC2)N=C(c2ccc(Cl)cc2)C(=O)N3)c1 |
| 649 | O=C(CCCS(=O)(=O)c1ccc(F)cc1)Nc1ncnc2sccc12 |
| 904 | CCNS(=O)(=O)c1cccnc1Nc1ccccc1 |
| 996 | Cc1nc(-c2csc(S(=O)(=O)N3CCCC(C(=O)Nc4cc(F)ccc4F)C3)c2)no1 (centres undefined) |
| 722 | CCCNC(=O)N1CCN(Cc2nc3cc(-c4ccccc4)ccc3o2)CC1 |
| 734 | Cc1ccc(NC(=O)Cn2nc3n(c2=O)CCCCC3)cc1F |
| 1110 | CCc1nc(-c2csc(S(=O)(=O)N3CCCC(C(=O)Nc4ccc(C)c(F)c4)C3)c2)no1 (centres undefined) |
| 555 | COc1ccc2c(c1)c(CN1C[C@@H](CO)[C@H](c3nc(C)no3)C1)cn2C |
| 692 | CCOC(=O)CNC(=O)N1CC(n2cc(COc3ccc(F)cc3)nn2)C1 |
| 564 | CC(NC(=O)c1c(O)c2sccc2[nH]c1=O)c1ccncc1 (centres undefined) |
| 788 | CC(C)Cn1cc(CCNC(=O)c2c(F)cccc2F)c2cccnc21 |
